According to PubChem BioAssay AID1963971 (Molecular Pharmacology Branch, DTP, NCI, 2024):

System: 953936-095-R-J2-PDC spheroids with HUVEC/MSC, viability
Test: Anticancer human tumor 953936-095-R-J2-PDC patient-derived cervical squamous cell carcinoma cell line growth inhibition [PI3K]
Settings: for IC50: curve of first compound; for viability, T/C: stronger effect = lower value; active = viability on the fitted dose curve at most 10% of control; inactive = the rest
Procedure, shortened: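 Combination activity was assessed by viability in multicellular tumor spheroids carrying HUVEC and MSC components. Agents were tested with PI3K inhibitors from a Cmax-based top dose (or 10 microM) downward in half-log increments.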

[1] = second compound 0.00316 µM, first compound 0.0316 µM
[2] = second compound 0.00316 µM, first compound 0.1 µM
[3] = second compound 0.00316 µM, first compound 0.316 µM
[4] = second compound 0.00316 µM, first compound 1 µM
[5] = second compound 0.00316 µM, first compound 3.16 µM
[6] = second compound 0.00316 µM, first compound 10 µM
[7] = second compound 0.01 µM, first compound 0.0316 µM
[8] = second compound 0.01 µM, first compound 0.1 µM
[9] = second compound 0.01 µM, first compound 0.316 µM
[10] = second compound 0.01 µM, first compound 1 µM
[11] = second compound 0.01 µM, first compound 3.16 µM
[12] = second compound 0.01 µM, first compound 10 µM
[13] = second compound 0.0316 µM, first compound 0.0316 µM
[14] = second compound 0.0316 µM, first compound 0.1 µM
[15] = second compound 0.0316 µM, first compound 0.316 µM
[16] = second compound 0.0316 µM, first compound 1 µM
[17] = second compound 0.0316 µM, first compound 3.16 µM
[18] = second compound 0.0316 µM, first compound 10 µM
[19] = second compound 0.1 µM, first compound 0.0316 µM
[20] = second compound 0.1 µM, first compound 0.1 µM
[21] = second compound 0.1 µM, first compound 0.316 µM
[22] = second compound 0.1 µM, first compound 1 µM
[23] = second compound 0.1 µM, first compound 3.16 µM
[24] = second compound 0.1 µM, first compound 10 µM
[25] = second compound 0.316 µM, first compound 0.0316 µM
[26] = second compound 0.316 µM, first compound 0.1 µM
[27] = second compound 0.316 µM, first compound 0.316 µM
[28] = second compound 0.316 µM, first compound 1 µM
[29] = second compound 0.316 µM, first compound 3.16 µM
[30] = second compound 0.316 µM, first compound 10 µM
[31] = second compound 1 µM, first compound 0.0316 µM
[32] = second compound 1 µM, first compound 0.1 µM
[33] = second compound 1 µM, first compound 0.316 µM
[34] = second compound 1 µM, first compound 1 µM
[35] = second compound 1 µM, first compound 3.16 µM
[36] = second compound 1 µM, first compound 10 µM
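Note: spheroids exposed to compounds for seven days before read-out.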

CC1(C)CCC(Nc2ncc(C(F)(F)F)c(-c3c[nH]c4c(P(C)(C)=O)c(C#N)ccc34)n2)CN1 (stereo unspecified) + CC(Nc1ccc2c(c1)OCCn1cc(N3C(=O)OCC3C(F)F)nc1-2)C(N)=O
active: viability, T/C [6] 5.82% | viability, T/C [12] 5.56% | viability, T/C [18] 4.63% | viability, T/C [36] 0.88%
inactive: viability, T/C [1] 48.3% | viability, T/C [2] 44.8% | viability, T/C [3] 49.2% | viability, T/C [4] 58.6% | viability, T/C [5] 45.3% | viability, T/C [7] 49.9% | viability, T/C [8] 45% | viability, T/C [9] 42.8% | viability, T/C [10] 51.6% | viability, T/C [11] 50.3% | viability, T/C [13] 45.9% | viability, T/C [14] 42.4% | viability, T/C [15] 39.2% | viability, T/C [16] 40.8% | viability, T/C [17] 44.9% | viability, T/C [19] 38.5% | viability, T/C [20] 32.2% | viability, T/C [21] 35.2% | viability, T/C [22] 32.7% | viability, T/C [23] 41.1% | viability, T/C [24] 3.61% | viability, T/C [25] 21.5% | viability, T/C [26] 22.4% | viability, T/C [27] 22.4% | viability, T/C [28] 22.4% | viability, T/C [29] 19.8% | viability, T/C [30] 1.3% | viability, T/C [31] 16.5% | viability, T/C [32] 16.3% | viability, T/C [33] 17.7% | viability, T/C [34] 16.6% | viability, T/C [35] 15.7%
< 0.0316 µM: IC50 (second compound 0.00316 µM) | IC50 (second compound 0.01 µM) | IC50 (second compound 0.0316 µM) | IC50 (second compound 0.1 µM) | IC50 (second compound 0.316 µM) | IC50 (second compound 1 µM)

Cn1ncc(Cl)c1-c1cc(C(=O)NC(CN)Cc2cccc(F)c2)sc1Cl (stereo unspecified) + CC(Nc1ccc2c(c1)OCCn1cc(N3C(=O)OCC3C(F)F)nc1-2)C(N)=O
0.618 µM: IC50 (second compound 0.00316 µM)
active: viability, T/C [30] 7.57% | viability, T/C [36] 5.59%
0.323 µM: IC50 (second compound 0.0316 µM)
< 0.0316 µM: IC50 (second compound 0.316 µM) | IC50 (second compound 1 µM)
inactive: viability, T/C [1] 83.3% | viability, T/C [2] 84.3% | viability, T/C [3] 62.6% | viability, T/C [4] 40.2% | viability, T/C [5] 19.1% | viability, T/C [6] 11% | viability, T/C [7] 90.4% | viability, T/C [8] 87.3% | viability, T/C [9] 58.1% | viability, T/C [10] 35.1% | viability, T/C [11] 17.7% | viability, T/C [12] 12.6% | viability, T/C [13] 78.3% | viability, T/C [14] 71.3% | viability, T/C [15] 49.7% | viability, T/C [16] 27.6% | viability, T/C [17] 15.5% | viability, T/C [18] 9.96% | viability, T/C [19] 66.6% | viability, T/C [20] 61.7% | viability, T/C [21] 38.8% | viability, T/C [22] 25.7% | viability, T/C [23] 13.6% | viability, T/C [24] 10.5% | viability, T/C [25] 36.1% | viability, T/C [26] 37.1% | viability, T/C [27] 28% | viability, T/C [28] 17.1% | viability, T/C [29] 12.9% | viability, T/C [31] 22.1% | viability, T/C [32] 22.5% | viability, T/C [33] 18.8% | viability, T/C [34] 13.8% | viability, T/C [35] 10.4%
0.499 µM: IC50 (second compound 0.01 µM)
0.181 µM: IC50 (second compound 0.1 µM)

Cn1nccc1Nc1nccc(-c2ccn(C(CO)c3ccc(Cl)c(F)c3)c(=O)c2)n1 (stereo unspecified) + CC(Nc1ccc2c(c1)OCCn1cc(N3C(=O)OCC3C(F)F)nc1-2)C(N)=O
active: viability, T/C [36] 8.88%
inactive: viability, T/C [1] 86.2% | viability, T/C [2] 87% | viability, T/C [3] 93.8% | viability, T/C [4] 95.1% | viability, T/C [5] 80.4% | viability, T/C [6] 71.7% | viability, T/C [7] 84.4% | viability, T/C [8] 94% | viability, T/C [9] 88.8% | viability, T/C [10] 77.1% | viability, T/C [11] 78.8% | viability, T/C [12] 70% | viability, T/C [13] 75.2% | viability, T/C [14] 68.8% | viability, T/C [15] 70.1% | viability, T/C [16] 72% | viability, T/C [17] 65.1% | viability, T/C [18] 61.9% | viability, T/C [19] 62.1% | viability, T/C [20] 52.7% | viability, T/C [21] 51.3% | viability, T/C [22] 46.5% | viability, T/C [23] 47.8% | viability, T/C [24] 40.1% | viability, T/C [25] 36.3% | viability, T/C [26] 32.8% | viability, T/C [27] 31% | viability, T/C [28] 28.4% | viability, T/C [29] 24% | viability, T/C [30] 19.5% | viability, T/C [31] 21.9% | viability, T/C [32] 20.9% | viability, T/C [33] 18% | viability, T/C [34] 15.1% | viability, T/C [35] 12.6%
0.383 µM: IC50 (second compound 0.1 µM)
< 0.0316 µM: IC50 (second compound 0.316 µM) | IC50 (second compound 1 µM)
> 10 µM: IC50 (second compound 0.00316 µM) | IC50 (second compound 0.01 µM) | IC50 (second compound 0.0316 µM)
